Source: patent US9096589B2, “Heteroaromatic phenylimidazole derivatives as PDE10A enzyme inhibitors” (H. Lundbeck A/S, priority 2009, dated 2015)

Molecular target: PDE10A (Homo sapiens (Human), UniProt Q9Y233)
Assay: PDE10A inhibition assay
Assay type: biochemical
Description: Active PDE10A enzyme is prepared in a number of ways for use in PDE assays (Loughney, K. et al. Gene 1999, 234, 109-117; Fujishige, K. et al. Eur J. Biochem. 1999, 266, 1118-1127 and Soderling, S. et al. Proc. Natl. Acad. Sci. 1999, 96, 7071-7076). PDE10A can be expressed as full-length proteins or as truncated proteins, as long as they express the catalytic domain. PDE10A can be prepared in different cell types, for example insect cells or E. coli. An example of a method to obtain catalytically active PDE10A is as follows: The catalytic domain of human PDE10A (amino acids 440-779 from the sequence with accession number NP 006652) is amplified from total human brain total RNA by standard RT-PCR and is cloned into the BamH1 and Xho1 sites of the pET28a vector (Novagen). Expression in coli is performed according to standard protocols. Briefly, the expression plasmids are transformed into the BL21(DE3) E. coli strain, and 50 mL cultures inoculated with the cells allowed to grow to an OD600 of 0.4-0.6 before protein expression is induced with 0.5 mM IPTG. Following induction, the cells are incubated overnight at room temperature, after which the cells are collected by centrifugation. Cells expressing PDE10A are resuspended in 12 mL (50 mM TRIS-HCl-pH8.0, 1 mM MgCl2 and protease inhibitors). The cells are lysed by sonication, and after all cells are lysed, TritonX100 is added according to Novagen protocols.
A PDE10A assay may for example, be performed as follows: The assay is performed in 60 uL samples containing a fixed amount of the relevant PDE enzyme (sufficient to convert 20-25% of the cyclic nucleotide substrate); a buffer (50 mM HEPES7.6; 10 mM MgCl2; 0.02% Tween20), 0.1 mg/ml BSA, 225 pCi of ^3H-labelled cyclic nucleotide substrate, tritium labeled cAMP to a final concentration of 5 nM and varying amounts of inhibitors. Reactions are initiated by addition of the cyclic nucleotide substrate, and reactions are allowed to proceed for one hr at room temperature before being terminated through mixing with 15 uL 8 mg/mL yttrium silicate SPA beads (Amersham). The beads are allowed to settle for one hr in the dark before the plates are counted in a Wallac 1450 Microbeta counter. The measured signal can be converted to activity relative to an uninhibited control (100%) and IC50 values can be calculated using the Xlfit extension to EXCEL.

PDE10A, sequence (Q9Y233 716-1055): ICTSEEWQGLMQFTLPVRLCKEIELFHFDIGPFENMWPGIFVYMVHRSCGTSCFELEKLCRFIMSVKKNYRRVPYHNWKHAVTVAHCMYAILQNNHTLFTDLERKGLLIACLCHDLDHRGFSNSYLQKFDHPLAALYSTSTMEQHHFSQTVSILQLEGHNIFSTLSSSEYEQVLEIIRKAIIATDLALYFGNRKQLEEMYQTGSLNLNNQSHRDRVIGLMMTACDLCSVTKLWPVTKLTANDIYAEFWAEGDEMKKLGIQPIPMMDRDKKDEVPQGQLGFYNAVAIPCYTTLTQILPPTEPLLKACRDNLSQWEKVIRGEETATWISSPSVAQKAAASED

| SMILES | IC50 |
| --- | --- |
| CCCn1cc(-c2cccnc2)nc1CCc1nc2cccc(C)n2n1 [5-Methyl-2-[2-(1-propyl-4-pyridin-3-yl-1H-imidazol-2-yl)-ethyl]-[1,2,4]triazolo[1,5-a]pyridine] | 49 nM |
| COCC(O)Cn1cc(-c2cncs2)nc1CCc1cn2c(C)cc(C)nc2n1 (stereo not shown) [1-{2-[2-(5,7-Dimethyl-imidazo[1,2-a]pyrimidin-2-yl)-ethyl]-4-thiazol-5-yl-imidazol-1-yl}-3-methoxy-propan-2-ol] | 58 nM |
| Cc1cccc2nc(/C=C/c3nc(-c4ccco4)cn3COCC[Si](C)(C)C)nn12 [2-{(E)-2-[4-Furan-2-yl-1-(2-trimethylsilanyl-ethoxymethyl)-1H-imidazol-2-yl]-vinyl}-5-methyl-[1,2,4]triazolo[1,5-a]pyridine] | 46 nM |
| Cc1cc(C)n2cc(/C=C/c3nc(-c4ccco4)cn3C)nc2n1 [2-[(E)-2-(4-Furan-2-yl-1-methyl-1H-imidazol-2-yl)-vinyl]-5,7-dimethyl-imidazo[1,2-a]pyrimidine] | 25 nM |
| Cc1cccn2nc(CCc3nc(-c4cccs4)cn3C)nc12 [8-Methyl-2-[2-(1-methyl-4-thiophen-2-yl-1H-imidazol-2-yl)-ethyl]-[1,2,4]triazolo[1,5-a]pyridine] | 15 nM |
| Cc1cc(C)n2nc(CCc3nc(-c4ccc(C)o4)cn3C)nc2n1 [5,7-Dimethyl-2-{2-[1-methyl-4-(5-methyl-furan-2-yl)-1H-imidazol-2-yl]-ethyl}-[1,2,4]triazolo[1,5-a]pyrimidine] | 38 nM |
| COCC(O)Cn1cc(-c2cccs2)nc1CCc1nc2c(C)cccn2n1 (stereo not shown) [1-Methoxy-3-{2-[2-(8-methyl-[1,2,4]triazolo[1,5-a]pyridin-2-yl)-ethyl]-4-thiophen-2-yl-imidazol-1-yl}-propan-2-ol] | 8.4 nM |
| Cc1cc(C)n2cc(/C=C/c3nc(-c4cnccn4)cn3C)nc2n1 [5,7-Dimethyl-2-[(E)-2-(1-methyl-4-pyrazin-2-yl-1H-imidazol-2-yl)-vinyl]-imidazo[1,2-a]pyrimidine] | 340 nM |
| Cc1cccn2nc(CCc3nc(-c4cccs4)c[nH]3)nc12 [8-Methyl-2-[2-(4-thiophen-2-yl-1H-imidazol-2-yl)-ethyl]-[1,2,4]triazolo[1,5-a]pyridine] | 0.99 nM |
| Cc1ccc(C)n2nc(CCc3nc(-c4nccs4)cn3C)nc12 [5,8-Dimethyl-2-[2-(1-methyl-4-thiazol-2-yl-1H-imidazol-2-yl)-ethyl]-[1,2,4]triazolo[1,5-a]pyridine] | 2.3 nM |
| Cc1ccc(-c2c[nH]c(CCc3nc4cccc(C)n4n3)n2)o1 [5-Methyl-2-{2-[4-(5-methyl-furan-2-yl)-1H-imidazol-2-yl]-ethyl}-[1,2,4]triazolo[1,5-a]pyridine] | 34 nM |
| Cc1ncc(C)n2nc(CCc3nc(-c4cscn4)cn3C)nc12 [5,8-Dimethyl-2-[2-(1-methyl-4-thiazol-4-yl-1H-imidazol-2-yl)-ethyl]-[1,2,4]triazolo[1,5-a]pyrazine] | 1.29 nM |
| Cc1cc(C)n2cc(CCc3nc(-c4cccs4)cn3CCN3CCOCC3)nc2n1 [5,7-Dimethyl-2-{2-[1-(2-morpholin-4-yl-ethyl)-4-thiophen-2-yl-1H-imidazol-2-yl]-ethyl}-imidazo[1,2-a]pyrimidine] | 36 nM |
| COc1ccc(C)n2nc(CCc3nc(-c4cscc4C)cn3C)nc12 [8-Methoxy-5-methyl-2-{2-[1-methyl-4-(4-methyl-thiophen-3-yl)-1H-imidazol-2-yl]-ethyl}-[1,2,4]triazolo[1,5-a]pyridine] | 3.1 nM |
| Cc1cc(C)n2cc(CCc3nc(-c4cncs4)cn3CC(O)c3ccc(Cl)cc3)nc2n1 (stereo not shown) [1-(4-Chloro-phenyl)-2-{2-[2-(5,7-dimethyl-imidazo[1,2-a]pyrimidin-2-yl)-ethyl]-4-thiazol-5-yl-imidazol-1-yl}-ethanol] | 5.7 nM |
| Cc1cc(C)n2cc(CCc3nc(-c4cccs4)cn3C3CCCC3)nc2n1 [2-[2-(1-Cyclopentyl-4-thiophen-2-yl-1H-imidazol-2-yl)-ethyl]-5,7-dimethyl-imidazo[1,2-a]pyrimidine] | 46 nM |
| Cc1ncc(C)n2nc(CCc3nc(-c4ccncc4)cn3C)nc12 [5,8-Dimethyl-2-[2-(1-methyl-4-pyridin-4-yl-1H-imidazol-2-yl)-ethyl]-[1,2,4]triazolo[1,5-a]pyrazine] | 0.55 nM |

| SMILES | IC50 |
| --- | --- |
| CCN(CC)C[C@H](O)Cn1cc(-c2cccs2)nc1CCc1nc2cccc(C)n2n1 [(S)-1-Diethylamino-3-{2-[2-(5-methyl-[1,2,4]triazolo[1,5-a]pyridin-2-yl)-ethyl]-4-thiophen-2-yl-imidazol-1-yl}-propan-2-ol] | 77 nM |
| Cc1ncc(C)n2nc(CCc3nc(-c4ccoc4)cn3C)nc12 [2-[2-(4-Furan-3-yl-1-methyl-1H-imidazol-2-yl)-ethyl]-5,8-dimethyl-[1,2,4]triazolo[1,5-a]pyrazine] | 2.9 nM |
| Cc1cc(C)n2cc(/C=C/c3nc(-c4ccoc4)cn3C)nc2n1 [2-[(E)-2-(4-Furan-3-yl-1-methyl-1H-imidazol-2-yl)-vinyl]-5,7-dimethyl-imidazo[1,2-a]pyrimidine] | 140 nM |
| Cc1cccc2nc(CCc3nc(-c4cccnc4)c[nH]3)nn12 [5-Methyl-2-[2-(4-pyridin-3-yl-1H-imidazol-2-yl)-ethyl]-[1,2,4]triazolo[1,5-a]pyridine] | 9.6 nM |
| Cc1cscc1-c1c[nH]c(CCc2nc3cccc(C)n3n2)n1 [5-Methyl-2-{2-[4-(4-methyl-thiophen-3-yl)-1H-imidazol-2-yl]-ethyl}-[1,2,4]triazolo[1,5-a]pyridine] | 45 nM |
| COc1cccn2nc(/C=C/c3nc(-c4cccs4)cn3C)nc12 [8-Methoxy-2-[(E)-2-(1-methyl-4-thiophen-2-yl-1H-imidazol-2-yl)-vinyl]-[1,2,4]triazolo[1,5-a]pyridine] | 62 nM |
| Cc1cc(C)n2cc(/C=C/c3nc(-c4cccnc4)cn3C)nc2n1 [5,7-Dimethyl-2-[(E)-2-(1-methyl-4-pyridin-3-yl-1H-imidazol-2-yl)-vinyl]-imidazo[1,2-a]pyrimidine] | 220 nM |
| CNCC[C@H](O)Cn1cc(-c2cccs2)nc1CCc1nc2cccc(C)n2n1 [(S)-4-Methylamino-1-{2-[2-(5-methyl-[1,2,4]triazolo[1,5-a]pyridin-2-yl)-ethyl]-4-thiophen-2-yl-imidazol-1-yl}-butan-2-ol] | 51 nM |
| Cc1cccc2nc(CCc3nc(-c4cccs4)cn3C)nn12 [5-Methyl-2-[2-(1-methyl-4-thiophen-2-yl-1H-imidazol-2-yl)-ethyl]-[1,2,4]triazolo[1,5-a]pyridine] | 9.2 nM |
| Cc1cccn2nc(CCc3nc(-c4cncs4)cn3C)nc12 [8-Methyl-2-[2-(1-methyl-4-thiazol-5-yl-1H-imidazol-2-yl)-ethyl]-[1,2,4]triazolo[1,5-a]pyridine] | 36 nM |
| COc1cccn2nc(/C=C/c3nc(-c4cncs4)cn3C)nc12 [8-Methoxy-2-[(E)-2-(1-methyl-4-thiazol-5-yl-1H-imidazol-2-yl)-vinyl]-[1,2,4]triazolo[1,5-a]pyridine] | 85 nM |
| COc1cccn2nc(/C=C/c3nc(-c4cscc4C)cn3C)nc12 [8-Methoxy-2-{(E)-2-[1-methyl-4-(4-methyl-thiophen-3-yl)-1H-imidazol-2-yl]-vinyl}-[1,2,4]triazolo[1,5-a]pyridine] | 55 nM |
| Cc1cc(C)n2cc(CCc3nc(-c4cccs4)cn3C(C)C)nc2n1 [2-[2-(1-Isopropyl-4-thiophen-2-yl-1H-imidazol-2-yl)-ethyl]-5,7-dimethyl-imidazo[1,2-a]pyrimidine] | 160 nM |
| COc1ccc(C)n2nc(/C=C/c3nc(-c4cccs4)cn3C)nc12 [8-Methoxy-5-methyl-2-[(E)-2-(1-methyl-4-thiophen-2-yl-1H-imidazol-2-yl)-vinyl]-[1,2,4]triazolo[1,5-a]pyridine] | 2.7 nM |
| COc1ccc(C)n2nc(CCc3nc(-c4cccnc4)cn3C)nc12 [8-Methoxy-5-methyl-2-[2-(1-methyl-4-pyridin-3-yl-1H-imidazol-2-yl)-ethyl]-[1,2,4]triazolo[1,5-a]pyridine] | 24 nM |
| Cc1cccc2nc(CCc3nc(-c4cccs4)cn3C[C@@H](O)CN3CCOCC3)nn12 [(S)-1-{2-[2-(5-Methyl-[1,2,4]triazolo[1,5-a]pyridin-2-yl)-ethyl]-4-thiophen-2-yl-imidazol-1-yl}-3-morpholin-4-yl-propan-2-ol] | 14 nM |
| Cc1ccc(C)n2nc(CCc3nc(-c4cccnc4)cn3C)nc12 [5,8-Dimethyl-2-[2-(1-methyl-4-pyridin-3-yl-1H-imidazol-2-yl)-ethyl]-[1,2,4]triazolo[1,5-a]pyridine] | 5.7 nM |
